# Laboratory results published in patent USRE47302E1 (ONYX THERAPEUTICS INC., priority 2013, dated 2019).
# Experiments:
# [1] = molecular target: T1, proteasome subunit β5 (beta5) (Homo sapiens, UniProt P28074); assay: Proteasome active-site ELISA (ProCISE), beta5, MOLT-4 lysate; format: biochemical; conditions: MOLT4 lysate, human, 1 h continuous treatment, 25° C.
# T1 construct: Lysate from the human acute lymphoblastic leukemia cell line, MOLT-4; endogenous in cells; host or cells: MOLT-4
# In short: (§1)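 MOLT-4 cell lysate treated 1 h at 25 °C with compound; probe-bound subunits denatured, pulled down on streptavidin beads and detected with subunit-specific antibodies plus HRP chemiluminescence.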
# [2] = molecular target: T2, immunoproteasome subunit LMP7 (Homo sapiens, UniProt P28062); assay: Proteasome active-site ELISA (ProCISE), LMP7, MOLT-4 lysate; format: biochemical; conditions: MOLT4 lysate, 1 h continuous treatment, 25° C.
# T2 construct: Lysate from the human acute lymphoblastic leukemia cell line, MOLT-4; endogenous in cells; host or cells: MOLT-4
# In short: as §1
# [3] = molecular target: human 20S immunoproteasome (i20S) (Homo sapiens, UniProt P28062); assay: 20S proteasome assay, chymotrypsin-like activity (succinyl-Leu-Leu-Val-Tyr-AMC), i20S; format: biochemical; conditions: LLVY substrate, 1 h continuous
# Source text: (§2) Assay buffer consisted of TE buffer [20 mmol/L Tris (pH 8.0), 0.5 mmol/L EDTA] with (20S) or without (cell lysate) 0.03% SDS. Reactions were initiated by enzyme or lysate addition and monitored for AMC product formation at 27jC with a plate-based spectofluorometer (Tecan).
# [4] = molecular target: human constitutive 20S proteasome (c20S) (Homo sapiens, UniProt P28074); assay: 20S proteasome assay, chymotrypsin-like activity (succinyl-Leu-Leu-Val-Tyr-AMC), c20S; format: biochemical; conditions: LLVY substrate, 1 h continuous
# Source text: as §2
# Solubility pH 7 = conditions: pH 7, aqueous buffer
IC50 [1] [nM],IC50 [2] [nM],IC50 [3] [nM],IC50 [4] [nM],solubility (Solubility pH 7) [µg/mL],Structure (SMILES)
4170,208,278,2430,3270,"COc1ccc(C[C@H](NC(=O)CNC(=O)CN2CCOCC2)C(=O)N[C@@H](Cc2ccccc2)C(=O)[C@@]2(C)CO2)cc1 [Compound C-1153, (S)-3-(4-methoxyphenyl)-N-((S)-1-((R)-2-methyloxiran-2-yl)-1-oxo-3-phenylpropan-2-yl)-2-(2-(2-morpholinoacetamido)acetamido)propanamide]"
1140,498,167,506,212,"C[C@H](NC(=O)CN1CCOCC1)C(=O)N[C@@H](Cc1coc2ccccc12)C(=O)N[C@@H](CC1CCCC1)C(=O)[C@@]1(C)CO1 [Compound C-1015, (S)-3-(benzofuran-3-yl)-N-((S)-3-cyclopentyl-1-((R)-2-methyloxiran-2-yl)-1-oxopropan-2-yl)-2-((S)-2-(2-morpholinoacetamido)propanamido)propanamide]"
1110,85.1,115,729,4050,"COc1ccc([C@@H](O)[C@H](NC(=O)[C@H](C)NC(=O)CN2CCOCC2)C(=O)N[C@@H](CC2CCCC2)C(=O)[C@@]2(C)CO2)cc1 [Compound C-1022, (2S,3R)-N-((S)-3-Cyclopentyl-1-((R)-2-methyloxiran-2-yl)-1-oxopropan-2-yl)-3-hydroxy-3-(4-methoxyphenyl)-2-((S)-2-(2-morpholinoacetamido)propanamido)propanamide]"
695,99.6,24.4,119,185,"COc1ccc(C[C@H](NC(=O)[C@H](C)NC(=O)CC2CCOCC2)C(=O)N[C@@H](CC2CCCC2)C(=O)[C@@]2(C)CO2)cc1 [Compound C-1010, (S)-N-((S)-3-cyclopentyl-1-((R)-2-methyloxiran-2-yl)-1-oxopropan-2-yl)-3-(4-methoxyphenyl)-2-((S)-2-(2-(tetrahydro-2H-pyran-4-yl)acetamido)propanamido)propanamide]"
388,38.4,20.2,232,140,"COc1ccc(C[C@H](NC(=O)[C@@H](C)NC(=O)C2CCOCC2)C(=O)N[C@@H](CC2=CCCC2)C(=O)[C@@]2(C)CO2)cc1O [Compound C-1062, N-((R)-1-(((S)-1-(((S)-3-(cyclopent-1-en-1-yl)-1-((R)-2-methyloxiran-2-yl)-1-oxopropan-2-yl)amino)-3-(3-hydroxy-4-methoxyphenyl)-1-oxopropan-2-yl)amino)-1-oxopropan-2-yl)tetrahydro-2H-pyran-4-carboxamide]"
805,131,76.5,667,2860,"C[C@H](NC(=O)CN1CCOCC1)C(=O)N[C@@H](Cc1ccc(S(N)(=O)=O)cc1)C(=O)N[C@@H](CC1CCCC1)C(=O)[C@@]1(C)CO1 [Compound C-1054, (S)-N-((S)-3-cyclopentyl-1-((R)-2-methyloxiran-2-yl)-1-oxopropan-2-yl)-2-((S)-2-(2-morpholinoacetamido)propanamido)-3-(4-sulfamoylphenyl)propanamide]"
1730,184,170,656,5840,"COc1ccc(C[C@H](NC(=O)[C@H](C)NC(=O)CN2CCOCC2)C(=O)N[C@@H](CC2CCCC2)C(=O)[C@@]2(C)CO2)cc1O [Compound C-1018, (S)-N-((S)-3-cyclopentyl-1-((R)-2-methyloxiran-2-yl)-1-oxopropan-2-yl)-3-(3-hydroxy-4-methoxyphenyl)-2-((S)-2-(2-morpholinoacetamido)propanamido)propanamide]"
6970,556,98.8,1550,1120,"COc1ccc(C[C@H](NC(=O)[C@@H](C)NC(=O)CC2CCOCC2)C(=O)N[C@@H](CC2CCCC2)C(=O)[C@@]2(C)CO2)cc1 [Compound C-1011, (S)-N-((S)-3-cyclopentyl-1-((R)-2-methyloxiran-2-yl)-1-oxopropan-2-yl)-3-(4-methoxyphenyl)-2-((R)-2-(2-(tetrahydro-2H-pyran-4-yl)acetamido)propanamido)propanamide]"
705,90.8,45.1,978,702,"C[C@@H](NC(=O)C1CCOCC1)C(=O)N[C@@H](Cc1ccc(S(C)(=O)=O)cc1)C(=O)N[C@@H](CC1CCCC1)C(=O)[C@@]1(C)CO1 [Compound C-1051, N-((R)-1-(((S)-1-(((S)-3-cyclopentyl-1-((R)-2-methyloxiran-2-yl)-1-oxopropan-2-yl)amino)-3-(4-(methylsulfonyl)phenyl)-1-oxopropan-2-yl)amino)-1-oxopropan-2-yl)tetrahydro-2H-pyran-4-carboxamide]"
926,83.1,46.2,351,2730,"COc1ccc(C[C@H](NC(=O)[C@H](C)NC(=O)CN2CCOCC2)C(=O)N[C@@H](CC2=CCCC2)C(=O)[C@@]2(C)CO2)cc1 [Compound C-1009, (S)-N-((S)-3-(Cyclopent-1-en-1-yl)-1-((R)-2-methyloxiran-2-yl)-1-oxopropan-2-yl)-3-(4-methoxyphenyl)-2-((S)-2-(2-morpholinoacetamido)propanamido)propanamide]"
443,90.7,14.9,169,1310,"COc1ccc(C[C@H](NC(=O)[C@@H](C)NC(=O)C2CC3(COC3)C2)C(=O)N[C@@H](CC2=CCCC2)C(=O)[C@@]2(C)CO2)cc1 [Compound C-1063, N-((R)-1-(((S)-1-(((S)-3-(cyclopent-1-en-1-yl)-1-((R)-2-methyloxiran-2-yl)-1-oxopropan-2-yl)amino)-3-(4-methoxyphenyl)-1-oxopropan-2-yl)amino)-1-oxopropan-2-yl)-2-oxaspiro[3.3]heptane-6-carboxamide]"
978,70.8,15.4,756,2050,"COc1ccc(C[C@H](NC(=O)[C@@H](C)NC(=O)C2CCOCC2)C(=O)N[C@@H](CC2CCCC2)C(=O)[C@@]2(C)CO2)cc1O [Compound C-1061, N-((R)-1-(((S)-1-(((S)-3-cyclopentyl-1-((R)-2-methyloxiran-2-yl)-1-oxopropan-2-yl)amino)-3-(3-hydroxy-4-methoxyphenyl)-1-oxopropan-2-yl)amino)-1-oxopropan-2-yl)tetrahydro-2H-pyran-4-carboxamide]"
1280,167,92.5,470,1720,"C[C@H](NC(=O)CN1CCOCC1)C(=O)N[C@@H](Cc1ccc2c(c1)OCO2)C(=O)N[C@@H](CC1CCCC1)C(=O)[C@@]1(C)CO1 [Compound C-1012, (S)-3-(benzo[d][1,3]dioxol-5-yl)-N-((S)-3-cyclopentyl-1-((R)-2-methyloxiran-2-yl)-1-oxopropan-2-yl)-2-((S)-2-(2-morpholinoacetamido)propanamido)propanamide]"
660,157,246,909,1530,"COc1ccc(C[C@H](NC(=O)[C@H](C)NC(=O)CN2CCOCC2)C(=O)N[C@@H](Cc2ccccc2)C(=O)[C@@]2(C)CO2)cc1OC [Compound C-1160, (S)-3-(3,4-dimethoxyphenyl)-N-((S)-1-((R)-2-methyloxiran-2-yl)-1-oxo-3-phenylpropan-2-yl)-2-((S)-2-(2-morpholinoacetamido)propanamido)propanamide]"
150,22.9,23,161,1780,COc1ccc(C[C@H](NC(=O)[C@@H](NC(=O)CN2CCOCC2)[C@H](C)O)C(=O)N[C@@H](Cc2ccccc2)C(=O)[C@@]2(C)CO2)cc1 [Compound C-1174]
3790,303,214,4110,822,"COc1ccc(C[C@H](NC(=O)[C@@H](C)NC(=O)C2CC(=O)C2)C(=O)N[C@@H](CC2CCCC2)C(=O)[C@@]2(C)CO2)cc1 [Compound C-1029, N-((R)-1-(((S)-1-(((S)-3-cyclopentyl-1-((R)-2-methyloxiran-2-yl)-1-oxopropan-2-yl)amino)-3-(4-methoxyphenyl)-1-oxopropan-2-yl)amino)-1-oxopropan-2-yl)-3-oxocyclobutanecarboxamide]"
595,43.4,27.9,1610,1270,"COc1ccc(C[C@H](NC(=O)[C@H](C)NC(=O)CN2CCOCC2)C(=O)N[C@@H](Cc2ccc(O)cc2)C(=O)[C@@]2(C)CO2)cc1 [Compound C-1162, (S)-N-((S)-3-(4-hydroxyphenyl)-1-((R)-2-methyloxiran-2-yl)-1-oxopropan-2-yl)-3-(4-methoxyphenyl)-2-((S)-2-(2-morpholinoacetamido)propanamido)propanamide]"
